# Laboratory results reported in patent publication US7238813B2, “Chemical compounds” (Smithkline Beecham Corporation, priority 2000, dated 2007).
# Where a name gives a salt, the structure may show the parent alone.
# Tests used:
# [1] = biological target: T1, GST-TIE2 (intracellular domains of human TIE2) (Homo sapiens, UniProt Q02763); assay: TIE-2 enzyme assay (TIE2-E), LANCE method; assay type: biochemical; conditions: 80 uM ATP
# T1 construct: made in house
# In short: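 Baculovirus GST-TIE2 (human intracellular domain, aa 762–1104) preactivated 30 min at RT with 2 mM ATP, then reacted 30 min at RT with 1 μM D1-15 peptide, 80 uM ATP, 10 mM MgCl2, pH 7.4, 2.4% DMSO. EDTA-stopped; LANCE Eu-anti-pTyr/streptavidin-APC read-out. IC50 by nonlinear regression, reported as pIC50.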
# [2] = biological target: T2, TIE2 intracellular domain/c-fms extracellular domain (TIE2/c-fms) chimeric protein expressing mouse 3T3 cells (Homo sapiens, UniProt Q02763); assay: TIE-2 autophosphorylation assay (TIE2-C), ELISA; assay type: cell-based; conditions: TIE2/c-fms 3T3 cells, MCSF activation
# T2 construct: a TIE2 intracellular domain/c-fms extracellular domain (TIE2/c-fms) chimeric protein; expressed in transfected cells; host or cells: mouse 3T3 cells
# T2 sequence (Q02763 770-1124 limits assumed, change not shown): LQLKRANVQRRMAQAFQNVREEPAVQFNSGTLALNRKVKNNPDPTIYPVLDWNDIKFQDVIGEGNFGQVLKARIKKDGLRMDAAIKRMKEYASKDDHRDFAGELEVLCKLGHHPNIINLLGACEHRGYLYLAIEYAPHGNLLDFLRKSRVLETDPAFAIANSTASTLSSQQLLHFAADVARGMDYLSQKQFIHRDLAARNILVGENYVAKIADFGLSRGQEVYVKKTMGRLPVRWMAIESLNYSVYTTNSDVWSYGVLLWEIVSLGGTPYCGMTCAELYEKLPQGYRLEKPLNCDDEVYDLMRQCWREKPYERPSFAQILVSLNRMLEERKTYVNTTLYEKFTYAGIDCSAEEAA
# In short: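 Mouse 3T3 cells expressing TIE2 intracellular/c-fms extracellular chimera treated with compound for 1 hr in serum-free DMEM (0.1% DMSO), then stimulated with MCSF. Lysates captured on anti-c-fms plates overnight at 4 °C; phosphotyrosine detected by biotin-PT66/HRP-streptavidin, OD450. IC50 by nonlinear regression, reported as pIC50.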
# GST-VEGFR2 = biological target: T3, GST-VEGFR2 (Homo sapiens, UniProt P35968); assay: VEGF-R2 enzyme assay (VEGF-E), LANCE method; assay type: biochemical; conditions: 75 μM ATP
# T3 construct: GST-VEGFR2, baculovirus expressed recombinant constructs of the intracellular domains of human TIE2 tagged by GST; made in house
# T3 sequence (P35968 786-1356 limits assumed): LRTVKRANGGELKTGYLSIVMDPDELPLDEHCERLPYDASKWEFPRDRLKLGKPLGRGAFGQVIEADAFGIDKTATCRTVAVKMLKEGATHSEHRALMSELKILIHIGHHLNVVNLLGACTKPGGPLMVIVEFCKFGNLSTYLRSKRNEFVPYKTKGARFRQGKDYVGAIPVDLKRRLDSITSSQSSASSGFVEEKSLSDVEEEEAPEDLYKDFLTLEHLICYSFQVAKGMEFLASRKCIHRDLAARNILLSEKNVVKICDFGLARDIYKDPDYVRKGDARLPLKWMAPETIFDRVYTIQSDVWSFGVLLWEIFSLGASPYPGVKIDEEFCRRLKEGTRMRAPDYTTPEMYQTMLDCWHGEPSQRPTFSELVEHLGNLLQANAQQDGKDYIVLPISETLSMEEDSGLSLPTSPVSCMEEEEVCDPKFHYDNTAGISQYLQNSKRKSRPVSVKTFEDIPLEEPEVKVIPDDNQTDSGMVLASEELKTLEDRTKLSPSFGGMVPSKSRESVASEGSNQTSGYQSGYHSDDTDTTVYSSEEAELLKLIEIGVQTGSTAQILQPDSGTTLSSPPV
# [3] = test system: Human umbilical cord endothelial cells (HUVEC); assay: VEGF-driven cellular proliferation assay: BrdU incorporation assay (VEGF-C); assay type: cell-based; parameters: key to VEGF-C: + = pIC50 of 5.0–6.0; ++ = pIC50 of 6.0–7.0; +++ = pIC50 of > 7.0; − = a negative or inconclusive result; conditions: for IC50: Homo sapiens
# Procedure: VFGF-driven Cellular Proliferation Assay: BrdU Incorporation Assay (VEGF-C)
# Human umbilical cord endothelial cells (HUVEC, Clonetics, CC2519) were passaged in Type I collagen-coated 100-mm petridishes in EGM-MV medium (Clonetics, CC3125) at 37° C. in a humidified 5% CO2, 95% air incubator. (HUVEC passaged more than 6 times in vitro were discarded and not subjected to assaying.) The cells were harvested using trypsin/EDTA, counted using a haemocytometer and plated at 5000 cells/well in a Type I-collagen coated 96-well plate (Becton Dickinson, 354407) in M199 medium (Gibco BRL, 12340-030) containing 5% FBS (Hyclone, A 1115-L) and gentamicin (at 50 μg/ml, Gibco BRL). After incubation overnight at 37° C., the media were replaced with 100 μl of M199 serum-free medium containing compounds at various concentrations with 0.6% DMSO and gentamicin. The compounds were diluted in serum-free M199 medium from 10 mM stock solutions prepared in 100% DMSO. After a 30 min incubation at 37° C., the cells were fed with 100 μl of serum-free M199 medium containing gentamicin, 0.2% culture-grade bovine serum albumin (BSA, Sigma A1993) and 20 ng/ml of VEGF (R&D systems, 293-VE) or 0.6 ng/ml of basic FGF (R&D systems, 233-FB), and cultured at 37° C. for another 24 h. The cells were pulsed with bromodeoxyuridine (BrdU at 10 μM in serum-free M199) at 37° C. for an additional 24 h. The incorporation of BrdU into the proliferating HUVEC were analyzed using BrdU Cell Proliferation ELISA (Roche Molecular Biochemicals, 1647229) according to the manufacturer's protocols. The optical density at 450 nm was measured with a multilabel counter (ARVO SX, Wallac). The percent inhibition of cell growth was calculated relative to blank control wells. The concentration of test compound that inhibits 50% of cell growth (IC50) was interpolated using nonlinear regression (Levernberg-Marquardt) and the equation, y=Vmax (1−x/(K+x))+Y2, where “K” was equal to the IC50. The IC50, values were converted to pIC50 values, i.e., −log IC50 in Molar concentration.
# T1 sequence (Q02763 762-1104): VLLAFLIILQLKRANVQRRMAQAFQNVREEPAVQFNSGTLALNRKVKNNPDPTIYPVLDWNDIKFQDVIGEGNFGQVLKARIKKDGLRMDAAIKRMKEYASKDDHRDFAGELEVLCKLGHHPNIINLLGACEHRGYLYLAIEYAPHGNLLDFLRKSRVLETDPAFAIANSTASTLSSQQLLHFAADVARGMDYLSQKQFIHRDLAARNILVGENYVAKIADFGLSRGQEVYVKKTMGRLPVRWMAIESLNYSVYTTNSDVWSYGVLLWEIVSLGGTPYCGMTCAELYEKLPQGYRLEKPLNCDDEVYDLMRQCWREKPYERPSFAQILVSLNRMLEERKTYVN
Compound,IC50 [1] [nM],IC50 [2] [nM],IC50 (GST-VEGFR2) [nM],IC50 [3] [nM],VEGF-C [3]
"COC(=O)Nc1nc2ccc(Oc3ccc(NC(=O)Nc4cc(C(F)(F)F)ccc4F)cc3)cc2n1CCN(C)C [Example 70, Methyl N-(6-(4-((2-fluoro-5-(trifluoromethyl)phenyl)aminocarbonylamino)phenoxy)-1-(2-(dimethylamino)ethyl)-1H-benzimidazol-2-yl)carbamate]",< 100,100 to 1000,< 100,1000 to 10000,
"O=C(Cn1nnc(N2CCCC2)n1)Nc1nc2cc(Oc3ccc(NC(=O)Nc4cc(C(F)(F)F)ccc4F)cc3)ccc2[nH]1 [Example 96, N-(5-(4-((2-Fluoro-5-(trifluoromethyl)phenyl)aminocarbonylamino)phenoxy)-1H-benzimidazol-2-yl)(5-(1-pyrrolidino)tetrazol-2-yl)acetamide]",< 100,< 100,< 100,100 to 1000,
"CC(C)(C)OC(=O)NCC(=O)Nc1nc2cc(Oc3ccc(NC(=O)Nc4cc(C(F)(F)F)ccc4F)cc3)ccc2[nH]1 [Example 35, N-(5-(4-((2-Fluoro-5-(trifluoromethyl)phenyl)aminocarbonylamino)phenoxy)-1H-benzimidazol-2-yl)-2-(N-(t-butoxycarbony)amino)acetamide]",< 100,100 to 1000,< 100,1000 to 10000,
"O=C(Nc1ccc(Oc2ccc3[nH]c(NC(=O)c4ccc(-n5ccnc5)cc4)nc3c2)cc1)Nc1cc(C(F)(F)F)ccc1F [Example 91, N-(5-(4-((2-Fluoro-5-(trifluoromethyl)phenyl)aminocarbonylamino)phenoxy)-1H-benzimidazol-2-yl)-4-(1H-imidazol-1-yl)benzamide]",< 100,< 100,< 100,,−
"Cc1ccc(S(=O)(=O)n2c(N)nc3ccc(Oc4ccc(NC(=O)Nc5cc(C(F)(F)F)ccc5F)cc4)cc32)cc1 [Example 24, 6-(4-((2-Fluoro-5-(trifluoromethyl)phenyl)aminocarbonylamino)phenoxy)-1-(4-(methyl)phenylsulfonyl)-1H-benzimidazol-2-ylamine]",< 100,100 to 1000,< 100,,−
"COC(=O)Nc1nc2cc(Oc3ccc(NC(=O)Nc4cc(OC)ccc4OC)cc3)ccc2[nH]1 [Example 42, Methyl N-(5-(4-((2,5-dimethoxyphenyl)aminocarbonylamino)phenoxy)-1H-benzimidazol-2-yl)carbamate]",< 100,< 100,< 100,100 to 1000,
O=C(Nc1ccc(Oc2ccc3[nH]c(NC(=O)C4CCCO4)nc3c2)cc1)Nc1cc(C(F)(F)F)ccc1F (centres unmarked) [Example 94],< 100,< 100,< 100,1000 to 10000,
CN(C)CC(=O)Nc1nc2cc(Oc3ccc(NC(=O)Nc4cc(C(F)(F)F)ccc4F)cc3)ccc2[nH]1 [Example 102],< 100,< 100,< 100,< 100,
"COC(=O)Nc1nc2ccc(Oc3ccc(NC(=O)Nc4cc(Cl)ccc4Cl)cc3)nc2[nH]1.Cl [Example 74, Methyl N-(5-(4-((2,5-dichlorophenyl)aminocarbonylamino)phenoxy)-3,4-diaza-1H-indole-2-yl)carbamate dihydrochloride]",< 100,< 100,< 100,,−
"COC(=O)Nc1nc2ccc(Oc3ccc(NC(=O)Nc4cc(C(F)(F)F)ccc4F)cc3)cc2n1CCN1CCOCC1 [Example 71, Methyl N-(6-(4-((2-fluoro-5-(trifluoromethyl)phenyl)aminocarbonylamino)phenoxy)-1-(2-(4-morpholino)ethyl)-1H-benzimidazol-2-yl)carbamate]",< 100,100 to 1000,< 100,1000 to 10000,
"CN1CCN(Cc2ccc(C(=O)Nc3nc4cc(Oc5ccc(NC(=O)Nc6cc(C(F)(F)F)ccc6F)cc5)ccc4[nH]3)cc2)CC1 [Example 87, N-(5-(4-((2-Fluoro-5-(trifluoromethyl)phenyl)aminocarbonylamino)phenoxy)-1H-benzimidazol-2-yl)-4-(4-methyl-1-piperazinomethyl)benzamide]",< 100,< 100,< 100,100 to 1000,
"COC(=O)Nc1nc2cc(Oc3cccc(NC(=O)Nc4cccc(Cl)c4)c3)ccc2[nH]1 [Example 14, Methyl (5-(3-((3-Chlorophenyl)aminocarbonylamino)phenoxy)-1H-benzimidazol-2-yl)carbamate hydrochloride]",100 to 1000,100 to 1000,< 100,100 to 1000,
"COC(=O)Nc1nc2cc(Oc3ccc(NC(=O)Nc4cc(Cl)ccc4Cl)cc3)ccc2[nH]1 [Example 45, Methyl N-(5-(4-((2,5-dichlorophenyl)aminocarbonylamino)phenoxy)-1H-benzimidazol-2-yl)carbamate]",< 100,< 100,< 100,,−

# Second part, led by results:
IC50 [1] [nM],IC50 [2] [nM],IC50 (GST-VEGFR2) [nM],Compound,IC50 [3] [nM],VEGF-C [3]
< 100,< 100,< 100,"COC(=O)Nc1nc2cc(Oc3cccc(NC(=O)Nc4cc(C(F)(F)F)ccc4F)c3)ccc2[nH]1 [Example 15, Methyl N-(5-(3-((2-Fluoro-5-(trifluoromethyl)phenyl)aminocarbonylamino)phenoxy)-1H-benzimidazol-2-yl)carbamate]",100 to 1000,
< 100,< 100,< 100,"CCOC(=O)Nc1nc2cc(Oc3ccc(NC(=O)Nc4cc(C(F)(F)F)ccc4F)cc3)ccc2[nH]1 [Example 17, Ethyl N-(5-(4-((2-fluoro-5-(trifluoromethyl)phenyl)aminocarbonylamino)phenoxy)-1H-benzimidazol-2-yl)carbamate]",< 100,
< 100,< 100,< 100,"COC(=O)Nc1nc2cc(Oc3ccc(NC(=O)Nc4cc(F)cc(C(F)(F)F)c4)cc3)ccc2[nH]1 [Example 50, Methyl N-(5-(4-((3-fluoro-5-(trifluoromethyl)phenyl)aminocarbonylamino)phenoxy)-1H-benzimidazol-2-yl)carbamate]",100 to 1000,
100 to 1000,100 to 1000,< 100,COC(=O)Nc1nc2cc(Oc3ccc(NC(=O)Nc4cccc(C#N)c4)cc3)ccc2[nH]1 [Example 49],,−
< 100,< 100,< 100,"CC(C)(C)OC(=O)Nc1nc2cc(Oc3ccc(NC(=O)Nc4cc(C(F)(F)F)ccc4F)cc3)ccc2[nH]1 [Example 18, t-Butyl N-(5-(4-((2-fluoro-5-(trifluoromethyl)phenyl)aminocarbonylamino)phenoxy)-1H-benzimidazol-2-yl)carbamate]",< 100,
< 100,< 100,< 100,"COC(=O)Nc1nc2ccc(Sc3ccc(NC(=O)Nc4cccc(C(F)(F)F)c4)cc3)cc2[nH]1 [Example 2, Methyl N-(5-(4-((3-(trifluoromethyl)phenyl)aminocarbonylamino)phenylthio)-1H-benzimidazol-2-yl)carbamate]",1000 to 10000,
< 100,< 100,< 100,COC(=O)Nc1nc2cc(Oc3ccc(NC(=O)Nc4cccc(C(F)(F)F)c4)cn3)ccc2[nH]1 [Example 38],,−
